Reference: patent publication US11707557B2, “Compositions and devices incorporating water-insoluble therapeutic agents and methods of the use thereof” (COOK MEDICAL TECHNOLOGIES LLC, priority 2014, dated 2023)
Converted amounts (≈) assume the structure as drawn.

Experiments:
[1] = Drug concentrations obtained using EGCG at 50 mg per ml (microscopic check for particulates); format: physicochemical; conditions: for Drug Concentration: 1 ml of water; for Particulates present: under a microscope
Procedure: EGCG at 50 mg/ml and drug at approximately 250 micrograms per ml were dissolved in the listed solvent and dried down in a test tube under nitrogen. 1 ml of water was added, followed by vortexing. The solutions were examined for particulate matter under a microscope. If no particulates were present, the process was repeated with a higher drug amount. All the tested drugs remained in solution at the listed concentrations except for nystatin and hesperidin.

[2] = Release from PLGA microspheres +/- EGCG or tannic acid; format: physicochemical; conditions: over a 10 days period
Procedure: Method: The method involved pipetting a solution of the polymer PLGA (usually 20% w/v) and drug (usually 5% w/w to polymer) and EGCG (e.g. 20% w/w/ to polymer) in dichlomethane (DCM) (5 ml) into 100 ml of 2.5% PVA solution in water stirring at 450 rpm. The suspension was left stirring for 2 hours and the microspheres washed 4 times in distilled water. The microspheres were then dried under vacuum for 2 days. Drug encapsulation was measured by dissolving a known weight of microspheres in 1 ml of dichloromethane followed by immediate dilution to 10 ml in 60:40 acetonitrile/water. The amount of drug or EGCG in the top and bottom phase of this solution was measured using HPLC methods (mobile phase 58:37:5 Acetonitrile:water:methanol. 1 ml per min flow on a c18 column with detection at 232 nm)
Tannic acid: An alternative method was used, termed a water-in oil-in water emulsion. […] This forms a primary emulsion of water droplets in the PLGA solution stabilized by Span. When this emulsion was pipetted into the PVA solution the microspheres formed well. […] The microspheres were a light brown in color indicative of tannic acid encapsulation.
Methods: In these studies, 10 mg of microspheres were suspended in 2 ml of phosphate buffered saline (pH 7.4 10 mM phosphate) in microcentrifuge tubes and tumbled at 8 rpm at 37° C. The tubes were then centrifuged at 12000×g and the supernatants collected for drug analysis by HPLC. 2 ml of fresh PBS was then placed on top of the microspheres which were returned to the 37° C. oven for continued incubation with tumbling.
At the end of the study the residual mass of polymer and drug was dissolved in DCM and drug extracted into 60:40 acetonitrile:water to measure residual drug. The amounts of residual drug were 89% for plga alone (at 31 days), 16% for EGCG and 8% for tannic acid (both at 51 days) as expressed as a % of the original loading.

[3] = Solubility of EGCG and tannic acid in propylene glycol and PEG 300
Excerpt: EGCG and tannic acid are fairly soluble in alcohol and acetonitrile. […] These solutions become more viscous and paste-like as the percentage of gallate in solution is increased. When non-drug containing pastes were placed in water, the contents of the paste (gallate, PG or PEG), which are all water soluble, dissolved away.

[4] = Solubility of drug in EGCG or tannic acid solutions (dried down, PBS or water added, 0.22 micron filtered, HPLC or absorbance)
Procedure: PBS (EGCG) or water (tannic acid) was added and the final solution filtered through a 0.22 micron filter to remove any particulates. The solutions were analyzed for drug concentration using HPLC.
PBS (EGCG) or water (tannic acid) was added and the final solution filtered through a 0.22 micron filter to remove particulates. The solution was then analyzed for drug concentration using absorbance spectroscopy at 450 nm.
PBS (EGCG) or water (tannic acid) was added and the final solution was filtered through a 0.22 micron filter to remove any particulates and the solution was analyzed for drug concentration using HPLC.
PBS (EGCG) or water (tannic acid) was added and the final solution filtered through a 0.22 micron filter to remove any particulates and the solution was analyzed for drug concentration using HPLC.
PBS (EGCG) or water (Tannic acid) was added and the final solution was filtered through a 0.22 um filter to remove any particulates and the solution was analyzed for drug concentration using HPLC.
Method: drug and EGCG or tannic acid were dried down from acetonitrile (or methanol for tannic acid) solutions at various drug to EGCG or tannic acid ratios. PBS (EGCG) or water (Tannic acid pH adjusted to 7) was added and the final solution was filtered through a 0.22 um filter to remove any particulates and the solution was analyzed for drug concentration using HPLC methods.

[5] = test system: pig skin
Procedure: Various gallate-containing drug formulations were prepared and applied to ex vivo pig skin samples. Fresh pig skin was obtained from a local butcher, processed within three hours and then frozen. For experiments, the skin was slowly thawed, excess fat removed from the base, and cut into 1×2 cm squares. These squares were mounted and clamped on Franz diffusion cells, which kept the tissue moist and isolated and exposed a 6 mm diameter of the upper skin surface for the application of a drug loaded formulation. Skin samples were then frozen and later cryosectioned in 50 μm slices. The drug in the slices was extracted and measured by HPLC or radioactive doping methods. A drug depth profile was then established for each drug.
1. Formulations containing a drug and a gallate. The drugs were dissolved in ethanol at various concentrations along with either EGCG or TA (500 mg/mL). Each solution was pipetted into 6×5 mm diameter aluminum cups (approximately 3 mm in height) by filling and allowing the ethanol to evaporate at 50° C. until all the solution was used up (80 mg per cup).
2. Formulations containing a drug, propylene glycol (“PG”) and a gallate. 300 mg of propylene glycol was mixed with 200 mg of EGCG or TA until dissolved. Various amounts of drug were added to this mixture and dissolved. 80 mg of the resulting viscous solution was weighed into 6×5 mm aluminum cups.
3. Control Formulations. Control formulations were prepared using Glaxal base and Plogel. Glaxal base is a cream used by compounding pharmacists to manufacture topical formulations of drugs. Plogel is an alternative used for dermal formulations. […] Drug was added to a known weight of Glaxal or Plogel and levigated to produce a standard drug dispersion. These formulations were prepared the evening before the experiment. For some drugs, radioactive drug (where available) was also added as a doping additive to facilitate quantitation in tissues.
Eutectics: In some cases, gallate containing compounds and drugs were formulated in eutectic mixtures. These included a 60:40 (% w/w) mixture of menthol with ibuprofen. These agents acted as a carrier for retinoic acid, which was then dissolved in this liquid. The 3-drug eutectic/solution was then blended into the CMC/poloxamer emulsion containing EGCG (2.5%). […] The emulsion was stabilized with poloxamer.
Example 29. Pig skin studies. Aluminum cups containing drug formulations were inverted on top of the pig skin in the Franz diffusion cell so that the formulation contents were in contact with the skin. […]
Analysis. […] The amount of drug in each group of skin sections was then determined using HPLC methods, or by radioactivity counting on a liquid scintillation counter. The amount of drug in each group of skin sections was expressed as μg/g or mg/g of tissue.

[6] = Lidocaine release from propylene glycol:gallate pastes into PBS; format: physicochemical
Procedure: For each formulation, 100 mg of paste was placed in the base of a round bottomed 15 mL glass test tube. […] At the start of the release experiment, 10 ml of PBS was added and the tubes left for various time periods, after which all 10 mL of the release media was removed for drug analysis. The residual mass was observed from the top, and the drop in diameter from 8 mm noted as a semi-quantitative assessed of paste pellet degradation. It was not possible to measure the degradation fully quantitatively at that time, as the pellets were fragile and water-swollen. After a few days the pellets became less fragile, and were removed from the tubes and dried on tissue paper before weighing. The drop in weight from 100 mg was then noted as the % degradation and compared with the visual observations.

Structure (SMILES): CC[C@@]1(O)C(=O)OCc2c1cc1n(c2=O)Cc2cc3ccccc3nc2-1 [camptothecin]
- Visual appearance [1]: clear
- Drug Concentration [1]: 50 microgram/ml
- Particulates present [1]: no

Structure (SMILES): O=C(O[C@@H]1Cc2c(O)cc(O)cc2O[C@@H]1c1cc(O)c(O)c(O)c1)c1cc(O)c(O)c(O)c1 [EGCG, epi gallo catechin gallate]
- release of EGCG or Tannic acid from PLGA microspheres [2]: approximately 45%
- solubility in PEG 300 liquid [3]: 25 % w/w
- solubility in propylene glycol [3]: higher than 50 % w/w

Structure (SMILES): COc1ccc2c(c1)c(CC(=O)O)c(C)n2C(=O)c1ccc(Cl)cc1 [indomethacin]
- Visual appearance [1]: clear solution
- Drug Concentration [1]: 250 microgram/ml
- Particulates present [1]: no

Structure (SMILES): CC1C(=O)OC2C(O)C34C5CC(C(C)(C)C)C36C(OC(=O)C6O)OC4(C(=O)O5)C12O (centres unmarked) [ginkgolide B]
- Visual appearance [1]: clear solution
- Drug Concentration [1]: 250 microgram/ml
- Particulates present [1]: no

Structure (SMILES): CC(C)(C)[C@]1(O)CC2OC(=O)CC23C(=O)OC2OC(=O)[C@H](O)C231 (some centres unmarked) [bilobalide]
- Visual appearance [1]: clear solution
- Drug Concentration [1]: 250 microgram/ml
- Particulates present [1]: no

Structure (SMILES): CO[C@H]1C[C@@H]2CC[C@@H](C)[C@@](O)(O2)C(=O)C(=O)N2CCCC[C@H]2C(=O)O[C@H]([C@H](C)C[C@@H]2CC[C@@H](O)[C@H](OC)C2)CC(=O)[C@H](C)/C=C(\C)[C@@H](O)[C@@H](OC)C(=O)[C@H](C)C[C@H](C)/C=C/C=C/C=C/1C [rapamycin]
- solubility ([4]; EGCG solution (200 mg/ml) in PBS, aqueous with cosolvent or surfactant or cyclodextrin, thermodynamic from solid, drug concentration solubilised at maximum EGCG concentration, EGCG 200 mg per ml, PBS): ~300 µg/mL (≈ 328 µM)
- effect of temperature on solubility ([4]; EGCG solutions): little effect of temperature
- stability of EGCG solutions of the drug ([4]; EGCG solutions, 24 hours): stable for 24 hours
- solubility ([4]; tannic acid solution (500 mg/ml) in water, aqueous with cosolvent or surfactant or cyclodextrin, thermodynamic from solid, drug concentration solubilised at maximum tannic acid concentration, tannic acid 500 mg/ml, water): ~1500 µg/mL (≈ 1640 µM)
- stability of tannic acid solutions of the drug ([4]; tannic acid solutions, 24 hours): stable for 24 hours
- effect of temperature on solubility ([4]; tannic acid solutions, 37° C. or 50° C. compared to 23° C.): no effect of temperature
- solubility ([4]; water, free solubility in water, no EGCG or tannic acid): 2 to 3 µg/mL (≈ 2.19 to 3.28 µM)

Structure (SMILES): COc1ccc([C@@H]2CC(=O)c3c(O)cc(O)cc3O2)cc1O [hesperetin]
- Visual appearance [1]: clear solution
- Drug Concentration [1]: 250 microgram/ml
- Particulates present [1]: no

Structure (SMILES): CC1=CC(=O)c2c(O)cccc2C1=O [plumbagin]
- Visual appearance [1]: clear
- Drug Concentration [1]: 250 microgram/ml
- Particulates present [1]: no

Structure (SMILES): CC1=C(/C=C/C(C)=C/C=C/C(C)=C/C(=O)O)C(C)(C)CCC1 [retinoic acid]
- drug uptake by pig skin relative to controls [5]: higher levels of uptake as compared to the control formulations

Structure (SMILES): COc1ccc([C@@H]2CC(=O)c3c(O)cc(O[C@@H]4O[C@H](CO[C@@H]5O[C@@H](C)[C@H](O)[C@@H](O)[C@H]5O)[C@@H](O)[C@H](O)[C@H]4O)cc3O2)cc1O [hesperedin]
- Visual appearance [1]: almost clear
- Drug Concentration [1]: 125 microgram/ml
- Particulates present [1]: very

Structure (SMILES): CCN(CC)CC(=O)Nc1c(C)cccc1C [lidocaine]
- period of drug release ([6]; EGCG:propylene glycol pastes, 20% drug loading): 2-4 weeks
- drug release ([6]; all EGCG:propylene glycol pastes, 5% drug loading, in approximately 2 days): ~100%
- period of drug release ([6]; tannic acid:propylene glycol pastes, 5% drug loading): ~7 days
- period of drug release ([6]; tannic acid:propylene glycol pastes, 20% drug loading): 4-5 weeks

Structure (SMILES): C[C@@H]1[C@H](O)[C@@H](C)/C=C/C=C/CC/C=C/C=C/C=C/C=C/C(O[C@H]2O[C@H](C)[C@@H](O)[C@H](N)[C@@H]2O)CC2O[C@](O)(CC(O)C(O)CCC(O)CC(O)CC(O)CC(=O)O[C@H]1C)CC(O)C2C(=O)O (some centres unmarked) [nystatin]
- Visual appearance [1]: clear solution
- Drug Concentration [1]: 125 microgram/ml
- Particulates present [1]: very

Structure (SMILES): O=C(OC[C@H]1O[C@@H](OC(=O)c2cc(O)c(O)c(OC(=O)c3cc(O)c(O)c(O)c3)c2)[C@H](OC(=O)c2cc(O)c(O)c(OC(=O)c3cc(O)c(O)c(O)c3)c2)[C@@H](OC(=O)c2cc(O)c(O)c(OC(=O)c3cc(O)c(O)c(O)c3)c2)[C@@H]1OC(=O)c1cc(O)c(O)c(OC(=O)c2cc(O)c(O)c(O)c2)c1)c1cc(O)c(O)c(OC(=O)c2cc(O)c(O)c(O)c2)c1 [tannic acid]
- release of EGCG or Tannic acid from PLGA microspheres [2]: ~65%
- solubility in PEG 300 liquid [3]: 25 % w/w

Structure (SMILES): O=c1c(O)c(-c2ccc(O)c(O)c2)oc2cc(O)cc(O)c12 [quercetin]
- Visual appearance [1]: clear
- Drug Concentration [1]: 250 microgram/ml
- Particulates present [1]: no
